Experimental data reported in publication PMC12794188, “Maternal–Fetal Transfer and Toxicokinetics of 2,2′,5,5′-Tetrachlorobiphenyl, [^14C]-PCB52, Following Intratracheal Administration” (Chemical Research in Toxicology, 2025).

Experiment: Toxicokinetics and tissue disposition of total [14C] radioactivity after a single intratracheal dose of [14C]-PCB52 (0.157 mg/kg) in pregnant rats at GD 11±1
Assay type: in vivo, Sprague–Dawley rats
Experimental: Female Sprague–Dawley rats (8 weeks old) weighing 237–269.7 g (mean = 247.5 g) (Envigo RMS, LLC, Indianapolis, IN) were used for this study. All animal experiments were performed following the protocols evaluated and approved by the University of Iowa Institutional Animal Care and Use Committee (approval number 3091097). After arrival, the animals were acclimated for 7 days. The animals were housed in a light and temperature-controlled environment with ad libitum access to food and water during quarantine and throughout the study. Timed pregnancy was achieved by harem mating. , Briefly, one male and two female rats were placed together in the evening and checked for vaginal plug the following day. If vaginal plug was present, the male was removed from the breeding cage, and the gestation day 0 (GD 0), 0-day post coitum was assigned. Pregnancies were confirmed by ultrasound scan at GD 9. The dams were exposed at GD 11 (±1 day) to capture the period of early organogenesis and hormonal function, which falls within week 3 of human embryonic development. ,− On the day of the experiment, pregnant rats were intratracheally administered an average of 40 μg (range, 35–45 μg) of [^14C]-PCB52 in 100 μL of exposure solution. Although the dose used in this study exceeded the tolerable daily intake (TDI) of PCBs for healthy individuals, which is 1.6 μg per day for an individual weighing 80 kg, the use of higher acute doses has been established in toxicological studies intended for risk assessment. The intratracheal instillation method was chosen for administering [^14C]-PCB52 to represent inhalation exposures, capture exhaled concentration, and efficiently utilize the limited availability of the cost-intensive radiolabeled PCB52. , Although inhalation exposure would better represent real-world exposures to airborne LC-PCBs, it would not allow us to accurately measure the amount of PCB52 exhaled into the air after exposure and is experimentally infeasible. […] All intratracheal instillations were done under light anesthesia, achieved using a 4% isoflurane concentration via a Fortec vaporizer (Cyprane, Keighley, UK). The animals recovered from anesthesia within 1 min. Subsequently, the animals were housed within a cylindrical glass chamber measuring 2 L in volume, equipped with glass drainage mechanisms to facilitate urine collection and a metallic screen to segregate urine from feces (as in Figure S1). Air was drawn from the chamber at 6.0 L/min through a cartridge containing the XAD-2 polymeric resin to capture any exhaled [^14C]-PCB52. For periods longer than 24 h postexposure, exposed dams were placed in a metabolic cage, which was fitted with a cartridge containing XAD-2 to capture exhaled [^14C]-PCB52 as in other end points.
Maternal blood, urine, and feces samples were collected immediately before and at 0.21, 1.67, 12, 24, 48, and 96 h after lung dosing. The exposed dams were euthanized using 4% isoflurane, followed by cervical dislocation and exsanguination via a cardiac puncture. Euthanasia was consistently performed during the light cycle. Dams’ fur was wiped and analyzed for radioactivity. Using the retro-orbital blood collection method, 0.5–1.5 mL ([…] of an exposed pregnant rat’s body weight) of blood sample was collected from each of the dams until the individual dams were necropsied for whole-body tissue harvesting. At the end of the exposure period, the chamber’s interior walls were rinsed separately with water and acetone/hexane (25 – 45 mL) and wiped to measure residues. From the collected whole blood samples, 100 μL were aliquoted into three vials each, and the remaining blood was allowed to clot at room temperature before being centrifuged to yield serum. The placentas, developing fetuses, and whole-body tissue samples were harvested immediately before exposure and at 0.21, 1.67, 12, 24, and 96 h postexposure. […]

[1] = Salivary gland, 0.21 h post-exposure
[2] = Salivary gland, 1.67 h post-exposure
[3] = Salivary gland, 12 h post-exposure
[4] = Salivary gland, 24 h post-exposure
[5] = Salivary gland, 96 h post-exposure
[6] = mammary gland/MS (maternal serum)
[7] = ratios of toxicokinetic parameters

Clc1ccc(Cl)c(-c2cc(Cl)ccc2Cl)c1 [PCB52, 2,2′,5,5′-Tetrachlorobiphenyl]
Percent tissue distribution (Ovary, 0.21 h post-exposure): 0.20%
Conc. per mg wet tissue (Ovary, 1.67 h post-exposure): 7.08 dpm/mg
Percent tissue distribution (Ovary, 1.67 h post-exposure): 0.08%
Conc. per mg wet tissue (Ovary, 12 h post-exposure): 1.61 dpm/mg
Percent tissue distribution (Ovary, 12 h post-exposure): 0.02%
Conc. per mg wet tissue (Ovary, 24 h post-exposure): 5.24 dpm/mg
Percent tissue distribution (Ovary, 24 h post-exposure): 0.05%
Percent tissue distribution (Ovary, 96 h post-exposure): 0.02%
AUC_%Extrap (Pancreas): 37.26%
Terminal elimination half-life (t1/2) (Pancreas): 67.74 h
Conc. per mg wet tissue (Pancreas, 0.21 h post-exposure): 14.81 dpm/mg
Percent tissue distribution (Pancreas, 0.21 h post-exposure): 0.91%
Conc. per mg wet tissue (Pancreas, 1.67 h post-exposure): 4.88 dpm/mg
Percent tissue distribution (Pancreas, 1.67 h post-exposure): 0.39%
Conc. per mg wet tissue (Pancreas, 12 h post-exposure): 1.83 dpm/mg
Percent tissue distribution (Pancreas, 12 h post-exposure): 0.07%
Conc. per mg wet tissue (Pancreas, 24 h post-exposure): 5.17 dpm/mg
Percent tissue distribution (Pancreas, 24 h post-exposure): 0.30%
Conc. per mg wet tissue (Pancreas, 96 h post-exposure): 38.84 dpm/mg
Percent tissue distribution (Pancreas, 96 h post-exposure): 0.14%
Tmax (Pituitary gland): 5760 min
AUC_%Extrap (Rectal Amp.): 62.17%
Terminal elimination half-life (t1/2) (Rectal Amp.): 133.61 h
AUC_%Extrap (Salivary gland): 44.09%
Terminal elimination half-life (t1/2) (Salivary gland): 84.60 h
Tmax (Salivary gland): ≤ 12.6 min
Conc. per mg wet tissue [1]: 8.48 dpm/mg
Percent tissue distribution [1]: 0.39%
Conc. per mg wet tissue [2]: 2.93 dpm/mg
Percent tissue distribution [2]: 0.18%
Conc. per mg wet tissue [3]: 1.44 dpm/mg
Percent tissue distribution [3]: 0.04%
Conc. per mg wet tissue [4]: 2.06 dpm/mg
Percent tissue distribution [4]: 0.06%
Conc. per mg wet tissue [5]: 0.34 dpm/mg
Percent tissue distribution [5]: 0.04%
AUC_%Extrap (Skin): 30.85%
Terminal elimination half-life (t1/2) (Skin): 58.90 h
AUC_%Extrap (Small Intestine): 25.66%
Terminal elimination half-life (t1/2) (Small Intestine): 47.33 h
AUC_%Extrap (Spleen): 35.06%
Terminal elimination half-life (t1/2) (Spleen): 55.79 h
Conc. per mg wet tissue (Spleen, 0.21 h post-exposure): 13.12 dpm/mg
Percent tissue distribution (Spleen, 0.21 h post-exposure): 0.29%
Conc. per mg wet tissue (Spleen, 1.67 h post-exposure): 3.05 dpm/mg
Percent tissue distribution (Spleen, 1.67 h post-exposure): 0.12%
Conc. per mg wet tissue (Spleen, 12 h post-exposure): 2.62 dpm/mg
Percent tissue distribution (Spleen, 12 h post-exposure): 0.04%
Conc. per mg wet tissue (Spleen, 24 h post-exposure): 5.75 dpm/mg
Percent tissue distribution (Spleen, 24 h post-exposure): 0.07%
Conc. per mg wet tissue (Spleen, 96 h post-exposure): 0.87 dpm/mg
Percent tissue distribution (Spleen, 96 h post-exposure): 0.03%
AUC_%Extrap (Stomach): 15.03%
Terminal elimination half-life (t1/2) (Stomach): 32.02 h
Tmax (Stomach): ≤ 12.6 min
Conc. per mg wet tissue (Stomach, 0.21 h post-exposure): 36.55 dpm/mg
Percent tissue distribution (Stomach, 0.21 h post-exposure): 0.71%
Conc. per mg wet tissue (Stomach, 1.67 h post-exposure): 17.01 dpm/mg
Percent tissue distribution (Stomach, 1.67 h post-exposure): 0.23%
Conc. per mg wet tissue (Stomach, 12 h post-exposure): 4.80 dpm/mg
Percent tissue distribution (Stomach, 12 h post-exposure): 0.33%
Conc. per mg wet tissue (Stomach, 24 h post-exposure): 6.56 dpm/mg
Percent tissue distribution (Stomach, 24 h post-exposure): 0.44%
Conc. per mg wet tissue (Stomach, 96 h post-exposure): 2.28 dpm/mg
Percent tissue distribution (Stomach, 96 h post-exposure): 0.10%
AUC_%Extrap (Thymus): 25.14%
Terminal elimination half-life (t1/2) (Thymus): 53.40 h
AUC_%Extrap (Thyroid): 12.95%
Terminal elimination half-life (t1/2) (Thyroid): 37.74 h
Conc. per mg wet tissue (Tongue, 0.21 h post-exposure): 0.16 dpm/mg
Percent tissue distribution (Tongue, 0.21 h post-exposure): 0.67%
Conc. per mg wet tissue (Tongue, 1.67 h post-exposure): 4.42 dpm/mg
Percent tissue distribution (Tongue, 1.67 h post-exposure): 0.0003%
Conc. per mg wet tissue (Tongue, 12 h post-exposure): 1.08 dpm/mg
Percent tissue distribution (Tongue, 12 h post-exposure): 0.06%
Conc. per mg wet tissue (Tongue, 24 h post-exposure): 1.03 dpm/mg
Percent tissue distribution (Tongue, 24 h post-exposure): 0.05%
Conc. per mg wet tissue (Tongue, 96 h post-exposure): 0.16 dpm/mg
Percent tissue distribution (Tongue, 96 h post-exposure): 0.01%
Conc. per mg wet tissue (Trachea, 0.21 h post-exposure): 142.06 dpm/mg
Percent tissue distribution (Trachea, 0.21 h post-exposure): 0.83%
Conc. per mg wet tissue (Trachea, 1.67 h post-exposure): 40.98 dpm/mg
Percent tissue distribution (Trachea, 1.67 h post-exposure): 0.24%
Conc. per mg wet tissue (Trachea, 12 h post-exposure): 13.20 dpm/mg
Percent tissue distribution (Trachea, 12 h post-exposure): 0.08%
Conc. per mg wet tissue (Trachea, 24 h post-exposure): 6.29 dpm/mg
Percent tissue distribution (Trachea, 24 h post-exposure): 0.04%
Conc. per mg wet tissue (Trachea, 96 h post-exposure): 1.03 dpm/mg
Percent tissue distribution (Trachea, 96 h post-exposure): 0.01%
AUC_%Extrap (Uterus): 17.37%
Terminal elimination half-life (t1/2) (Uterus): 34.85 h
Conc. per mg wet tissue (Uterus, 0.21 h post-exposure): 0.37 dpm/mg
Percent tissue distribution (Uterus, 0.21 h post-exposure): 0.21%
Conc. per mg wet tissue (Uterus, 1.67 h post-exposure): 2.43 dpm/mg
Percent tissue distribution (Uterus, 1.67 h post-exposure): 0.11%
Conc. per mg wet tissue (Uterus, 12 h post-exposure): 0.93 dpm/mg
Percent tissue distribution (Uterus, 12 h post-exposure): 0.06%
Conc. per mg wet tissue (Uterus, 24 h post-exposure): 2.20 dpm/mg
Percent tissue distribution (Uterus, 24 h post-exposure): 0.16%
Conc. per mg wet tissue (Uterus, 96 h post-exposure): 0.37 dpm/mg
Percent tissue distribution (Uterus, 96 h post-exposure): 0.13%
AUC_% extrap (amniotic fluid): 7.8%
AUC_%Extrap (amniotic fluid): 8.11%
Terminal elimination half-life (t1/2) (amniotic fluid): 26.38 h
maternal serum exposure ratio (amniotic fluid): 0.05
AUC0–96h ratio (brain/MS (maternal serum)): 0.672
C max ratio (brain/MS (maternal serum)): 0.598
AUC0–96h ratio (brain/thyroid): 0.276
C max ratio (brain/thyroid): 0.298
concentration in brown adipose relative to white adipose (brown vs white adipose): five times higher
biological half-life (dams): less than 2 days
biological half-life (developing fetuses): less than 2 days
AUC0‑∞ ratio (fetus/AF (amniotic fluid)): 5.472
AUC0–96h ratio (fetus/AF (amniotic fluid)): 5.405
C max ratio (fetus/AF (amniotic fluid)): 5.767
AUC0–96h ratio (fetus/MS (maternal serum)): 0.100
C max ratio (fetus/MS (maternal serum)): 0.135
AUC0‑∞ ratio (fetus/mammary gland): 46.45
AUC0–96h ratio (fetus/mammary gland): 43.42
C max ratio (fetus/mammary gland): 11.47
AUC0‑∞ ratio (fetus/ovary): 0.078
AUC0–96h ratio (fetus/ovary): 0.094
C max ratio (fetus/ovary): 0.163
AUC0–96h ratio (fetus/pituitary): 0.026
C max ratio (fetus/pituitary): 0.052
AUC0‑∞ ratio (fetus/placenta): 0.569
AUC0–96h ratio (fetus/placenta): 0.538
C max ratio (fetus/placenta): 0.778
AUC0‑∞ ratio (fetus/thymus): 0.125
AUC0–96h ratio (fetus/thymus): 0.152
C max ratio (fetus/thymus): 0.314
AUC0‑∞ ratio (fetus/thyroid): 8.805
AUC0–96h ratio (fetus/thyroid): 8.445
C max ratio (fetus/thyroid): 8.150
AUC0‑∞ ratio [6]: 12.59
AUC0–96h ratio [6]: 12.52
C max ratio [6]: 2.822
AUC_% extrap (maternal serum): 14.2%
blood-to-plasma ratio (observed experimental): 0.53
AUC0–96h ratio (ovary/MS (maternal serum)): 3.043
C max ratio (ovary/MS (maternal serum)): 1.512
AUC0–96h ratio (pituitary/MS (maternal serum)): 11.289
C max ratio (pituitary/MS (maternal serum)): 4.741
AUC0–96h ratio (pituitary/thymus): 5.933
C max ratio (pituitary/thymus): 4.114
AUC_% extrap (placenta): 4.1%
AUC_%Extrap (placenta): 4.14%
Terminal elimination half-life (t1/2) (placenta): 21.11 h
maternal serum exposure ratio (placenta): 0.5
AUC0‑∞ ratio (placenta/MS (maternal serum)): 0.477
AUC0–96h ratio (placenta/MS (maternal serum)): 0.536
C max ratio (placenta/MS (maternal serum)): 0.316
time at which brown/white adipose concentration ratio reached unity (postexposure): 24 h
amniotic fluid-to-fetus ratio [7]: < 1
fetus-to-amniotic fluid ratio [7]: > 5
AUC0‑∞ ratio (thymus/MS (maternal serum)): 2.169
AUC0–96h ratio (thymus/MS (maternal serum)): 1.903
C max ratio (thymus/MS (maternal serum)): 1.152
AUC0‑∞ ratio (thyroid/MS (maternal serum)): 2.387
AUC0–96h ratio (thyroid/MS (maternal serum)): 2.435
C max ratio (thyroid/MS (maternal serum)): 2.005
AUC0‑∞ ratio (uterus/MS (maternal serum)): 0.917
AUC0–96h ratio (uterus/MS (maternal serum)): 0.888
C max ratio (uterus/MS (maternal serum)): 0.296
AUC0‑∞ ratio (uterus/ovary): 0.262
AUC0–96h ratio (uterus/ovary): 0.292
C max ratio (uterus/ovary): 0.196
